In patent US7922998B2, “Gastrin releasing peptide compounds” (Bracco Imaging S.p.A., priority 2003, dated 2011):
Entries after “also recorded” stand apart in the source; their conditions may differ.

What was measured:
NMB-R = target: T1, NMB-R (Rattus norvegicus, UniProt P24053); assay: Competition with 125I-NMB for NMB-R in C6 cells (Example LX); assay type: binding, rodent; conditions: for receptor subtype preference (GRP-R / NMB-R): in words, from IC50 with 125I-NMB (C6) and 125I-BBN (PC3), cut off 10× the IC50 of [Tyr4]-BBN
T1 construct: C6, an NMB-R expressing rodent glioblastoma cell line; host or cells: C6 glioma cells, intact and plated
T1 sequence (P24053 1-390): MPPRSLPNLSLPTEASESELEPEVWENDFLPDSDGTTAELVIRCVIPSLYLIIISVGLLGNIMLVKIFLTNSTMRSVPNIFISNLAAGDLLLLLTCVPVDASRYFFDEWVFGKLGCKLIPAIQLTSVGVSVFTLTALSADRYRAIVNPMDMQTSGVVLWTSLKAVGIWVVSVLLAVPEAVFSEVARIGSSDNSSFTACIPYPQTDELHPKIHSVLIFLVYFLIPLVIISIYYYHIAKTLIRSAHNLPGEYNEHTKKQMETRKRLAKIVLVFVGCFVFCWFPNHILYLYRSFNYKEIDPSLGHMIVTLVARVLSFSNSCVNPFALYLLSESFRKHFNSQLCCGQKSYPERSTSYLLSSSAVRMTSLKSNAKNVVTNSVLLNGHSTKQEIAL
Procedure: Two cell lines, C6, an NMB-R expressing rodent glioblastoma cell line and PC3, a GRP-R expressing human prostate cancer cell line, were used in this assay. The affinity of various unlabeled compounds for each receptor subtype (NMB-R and GRP-R) was determined indirectly by measuring its ability to compete with the binding of ^125I-NMB or ^125I-BBN to its corresponding receptors in C6 and PC3 cells.
Cells for the assays were plated at a concentration of 9.6×10^4/well in 48 well poly-lysine coated plates (Beckton Dickinson Biocoat).
• Custom made ^125I-[Tyr^0]NMB, >2.0 Ci/μmole (Amersham Life Science) [^125I-NMB] and commercially available ^125I-[Tyr^4]BBN, >2.0 Ci/μmole (Perkin Elmer Life Science) [^125I-BBN] were used as radioligands.
• Using a 48-well plate assay system (for C6 study) competition experiments were performed using ^125I-NMB. […] Selection of compounds for the assay was based on linker subtype.
The binding parameters obtained from the studies were analyzed using a one-site competition non-linear regression analysis with GraphPad Prism. The relative affinity of various compounds for NMB-R in C6 cells were compared with those obtained using commercially available [Tyr^4]-BBN and [Tyr^0]-NMB. To distinguish the GRP-R preferring compounds from NMB-R plus GRP-R preferring compounds, IC50 values obtained for each compound was compared with those obtained from [Tyr^0]-BBN with ^125I-NMB on C6 cells.

PC3 cells = assay: Internalization & Efflux Assay in PC3 cells; assay type: cell-based, human; conditions: for Internalisation (40 minutes): 40 min at 37° C., Lu-177 complexes (125I-BBN as comparator); for Efflux (2 h): percent efflux 2 h after loading 40 min at 37° C., Lu-177 complexes
Procedure: • These studies were conducted in a 96-well plate. […] Incubations were stopped by the addition of 200 μl of ice-cold binding buffer. Plates were washed twice with binding buffer. To remove surface-bound radioligand, the cells were incubated with 0.2M acetic acid (in saline), pH 2.8 for 2 min. Plates were centrifuged and the acid wash media were collected to determine the amount of radioactivity which was not internalized. The cells were collected to determine the amount of internalized ^125I-BBN, and all samples were analyzed in the gamma counter. Data for the internalization assay was normalized by comparing counts obtained at the various time points with the counts obtained at the final time point (T40 min). • For the efflux studies, after loading the PC3 cells with ^125I-BBN or radiolabeled compounds of the invention for 40 min at 37° C., the unbound material was filtered, and the % of internalization was determined as above. The cells were then resuspended in binding buffer at 37° C. for up to 3 h.

[1] = system: PC3 tumor-bearing nude mice; assay type: in vivo, mouse; conditions: in words; for uptake in the tumor compared with control: 1 and 24 h
Procedure: • Low dose pharmacokinetic studies (e.g., biodistribution studies) were performed using the below-identified compounds of the invention in xenografted, PC3 tumor-bearing nude mice ([Ncr]-Foxn1). In all studies, mice were administered 100 μL of ^177Lu-labeled test compound at 200 μCi/kg, i.v., with a residence time of 1 and 24 h per group (n=3-4). Tissues were analyzed in an LKB 1282 CompuGamma counter with appropriate standards.

[2] = system: PC3 tumor-bearing nude mouse model; assay: Radiotherapy Short Term Efficacy Study; assay type: in vivo
Procedure: • Radiotherapy studies were performed using the PC3 tumor-bearing nude mouse model. […] (n=12 for each treatment group for up to 30 days, and n=36 for the pooled untreated control group for up to 31 days). […] The subjects were housed in a barrier environment for the duration of the study. Body weight and tumor size (by caliper measurement) were collected on each subject 3 times per week for the duration of the study. Criteria for early termination included: death; loss of total body weight (TBW) equal to or greater than 20%; tumor size equal to or greater than 2 cm^3.

[3] = system: PC3 tumor-bearing nude mouse model; assay: Radiotherapy Long Term Efficacy Study; assay type: in vivo; conditions: 177Lu labeled, 30 mCi/kg, up to 120 days; vs same controls; FIG. 15B
GRP-R = target: T2, GRP-R (Homo sapiens, UniProt P30550); assay: Competition assay of modified BBN analogs with 125I-BBN for GRP-R in PC3 cells (Example LXI); assay type: binding; conditions: in words
T2 construct: host or cells: PC3 human prostate cancer cells, intact and plated
Procedure: • PC3 cell lines were obtained from ATCC(CRL-1435) and cultured in RPMI 1640 (ATCC) supplemented with 2 mM L-glutamine, 1.5 g/L Sodium bicarbonate, 10 mM HEPES and 10% FBS. […] PC3 cells for the assays were plated at a concentration of 2.0×10^4 cells/well in a 96-well white/clear bottom plates (Falcon Optilux-I). Plates were used for the assays on day 2 of the post-plating.
• RPMI 1640 (ATCC) containing 25 mM HEPES, 0.2% BSA fraction V, 1.0 mM AEBSF (CAS #3087-99-7) and 0.1% Bacitracin (CAS #1405-87-4), pH 7.4.
• ^125I-BBN (Cat # NEX258) was obtained from PerkinElmer Life Sciences.
• All compounds tested were dissolved in binding buffer and appropriate dilutions were also done in binding buffer. PC3 cells for assay were seeded at a concentration of 2.0×10^4/well either in 96-well black/clear collagen I cellware plates (Beckton Dickinson Biocoat). Plates were used for binding studies on day 2 post-plating. The plates were checked for confluency (>90% confluent) prior to assay. […] The studies were conducted with an assay volume of 75 μl per well. Triplicate wells were used for each data point. After the addition of the appropriate solutions, plates were incubated for 1 hour at 4° C. Incubation was ended by the addition of 200 uL of ice-cold incubation buffer. Plates were washed 5 times and blotted dry. Radioactivity was detected using either a LKB CompuGamma counter or a microplate scintillation counter.

[4] = Table 10, class cut off 10x the IC50 of [Tyr4]-BBN with 125I-NMB on C6 cells, yes or dash
[5] = 177Lu labeled, 30 mCi/kg, up to 30 days, vs untreated and vs DO3A-monoamide-Aoc-QWAVGHLM-NH2 control, FIG. 15A

T2 sequence (P30550 whole entry): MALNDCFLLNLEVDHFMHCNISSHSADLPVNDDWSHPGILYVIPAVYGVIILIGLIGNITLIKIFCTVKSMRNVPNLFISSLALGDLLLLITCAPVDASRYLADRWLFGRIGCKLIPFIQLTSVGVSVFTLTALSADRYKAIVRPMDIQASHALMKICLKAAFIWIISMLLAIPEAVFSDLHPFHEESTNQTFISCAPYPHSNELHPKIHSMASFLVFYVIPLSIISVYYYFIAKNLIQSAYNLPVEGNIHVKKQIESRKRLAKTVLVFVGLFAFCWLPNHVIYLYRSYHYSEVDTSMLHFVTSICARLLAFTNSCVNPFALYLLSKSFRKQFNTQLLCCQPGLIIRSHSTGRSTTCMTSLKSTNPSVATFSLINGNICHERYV

Molecule: N,N-dimethylglycine-Ser-Cys(Acm)-Gly-N-1-piperazineacetic acid-8-amino-3,6-dioxaoctanoic acid-BBN(7-14) [Compound L36]
- GRP-R & NMB-R (binds both with similar affinity) (NMB-R; [4]): yes

Molecule: N-[[4,7,10-Tris(carboxymethyl)-1,4,7,10-tetraazacyclododec-1-yl]acetyl]glycyl-4-piperidinecarbonyl-L-glutaminyl-L-tryptophyl-L-alanyl-L-valyl-glycyl-L-histidyl-L-leucyl-L-methioninamide [Compound L74]
- GRP-R & NMB-R (binds both with similar affinity) (NMB-R; [4]): yes

Molecule: CSCC[C@H](NC(=O)[C@H](CC(C)C)NC(=O)[C@H](Cc1c[nH]cn1)NC(=O)CNC(=O)[C@@H](NC(=O)[C@H](C)NC(=O)[C@H](Cc1c[nH]c2ccccc12)NC(=O)[C@H](CCC(N)=O)NC(=O)CC[C@@H](C)[C@H]1CC[C@H]2[C@@H]3CC[C@@H]4C[C@@H](NC(=O)CNC(=O)CN5CCN(CC(=O)O)CCN(CC(=O)O)CCN(CC(=O)O)CC5)CC[C@]4(C)[C@H]3C[C@H](O)[C@]12C)C(C)C)C(N)=O [Compound L63, N-[(3β,5β,12α)-3-[[[[[4,7,10-Tris(carboxymethyl)-1,4,7,10-tetraazacyclododec-1-yl]acetyl]amino]acetyl]amino]-12-hydroxy-24-oxocholan-24-yl]-L-glutaminyl-L-tryptophyl-L-alanyl-L-valyl-glycyl-L-histidyl-L-leucyl-L-methioninamide]
- Internalisation (40 minutes) (PC3 cells): 64%
- Efflux (2 h) (PC3 cells): 0%
- uptake in the mouse pancreas compared with control [1]: much higher
- uptake in the tumor compared with control [1]: high tumour uptake
- distribution of radioactivity in the blood, liver and kidneys compared with control ([1]; vs DO3A-monoamide-Aoc-QWAVGHLM-NH2): increased blood and liver values at early times
- survival [2, 5]: increased survival
- GRP-R & NMB-R (binds both with similar affinity) (NMB-R; [4]): yes
- receptor subtype preference (GRP-R / NMB-R) (NMB-R): dual affinity for both GRP-R and NMB-R

Molecule: N-[4-[[[[[4,7,10-Tris(carboxymethyl)-1,4,7,10-tetraazacyclododec-1-yl]acetyl]amino]acetyl]amino]benzoyl]-L-glutaminyl-L-tryptophyl-L-alanyl-L-valyl-glycyl-L-histidyl-L-leucyl-L-methioninamide [Compound L70]
- Internalisation (40 minutes) (PC3 cells): 70%
- Efflux (2 h) (PC3 cells): 12%
- survival ([2]; mouse, in vivo): increased survival
- survival [3]: significantly increased survival
- GRP-R & NMB-R (binds both with similar affinity) (NMB-R; [4]): yes
- receptor subtype preference (GRP-R / NMB-R) (NMB-R): dual affinity

Molecule: N-[(3β,5β,12α)-3-[[[4,7,10-Tris(carboxymethyl)-1,4,7,10-tetraazacyclododec-1-yl]acetyl]amino]-glycyl-4-aminobenzoyl-L-glutaminyl-L-tryptophyl-L-alanyl-L-valyl-glycyl-L-histidyl-L-phenylalanyl-L-methioninamide [Compound L228]
- competition / activity at GRP-R (GRP-R): maintains GRP-R activity

Molecule: DO3A-monoamide-8-amino-octanoic acid-BBN (7-14) [reference compound]
- Internalisation (40 minutes) (PC3 cells): 89%
- Efflux (2 h) (PC3 cells): 28%

Molecule: N-[(3β,5β,12α)-3-[[[[[4,7,10-Tris(carboxymethyl)-1,4,7,10-tetraazacyclododec-1-yl]acetyl]amino]acetyl]amino]-[4′-Amino-2′-methyl biphenyl-4-carboxyl]-L-glutaminyl-L-tryptophyl-L-alanyl-L-valyl-glycyl-L-histidyl-L-leucyl-L-methioninamide [Compound L206]
- GRP-R & NMB-R (binds both with similar affinity) (NMB-R; [4]): yes

Molecule: DO3A-monoamide-N-4-aminoethyl-N-1-piperazineacetic acid-BBN(7-14) [Compound L89]
- GRP-R (preferentially binds GRP-R) (NMB-R; [4]): yes
- receptor subtype preference (GRP-R / NMB-R) (NMB-R): GRP-R selectivity

Molecule: N-[(3β,5β,12α)-3-[[[4,7,10-Tris(carboxymethyl)-1,4,7,10-tetraazacyclododec-1-yl]acetyl]amino]-glycyl-4-aminobenzoyl-L-glutaminyl-L-tryptophyl-L-alanyl-glycyl-L-histidyl-L-phenylalanyl-L-leucinamide [Compound L224]
- competition / activity at GRP-R (GRP-R): complete loss of binding

Molecule: N-[(3β,5β,12α)-3-[[[4,7,10-Tris(carboxymethyl)-1,4,7,10-tetraazacyclododec-1-yl]acetyl]amino]-4-aminobenzoyl-glycyl-L-glutaminyl-L-tryptophyl-L-alanyl-L-valyl-glycyl-L-histidyl-L-leucyl-L-methioninamide [Compound L204]
- Receptor preference in words (cell spanning the GRP-R and GRP-R & NMB-R columns) (NMB-R; Table 10): preference to NMB-R
- GRP-R & NMB-R (binds both with similar affinity) (NMB-R; [4]): yes
- receptor subtype preference (GRP-R / NMB-R) (NMB-R): selective affinity to NMB-R; also recorded: favor the NMB subtype

Molecule: N-[4-[[[[4,7,10-Tris(carboxymethyl)-1,4,7,10tetraazacyclododec-1-yl]acetyl]glycyl]amino]-3-methoxybenzoyl]-L-glutaminyl-L-tryptophyl-1-alanyl-L-valyl-glycyl-L-histidyl-L-leucyl-L-methioninamide [Compound L240]
- receptor subtype preference (GRP-R / NMB-R) (NMB-R): selective affinity to GRP-R

Molecule: N-[(3β,5β,12α)-3-[[[[[4,7,10-Tris(carboxymethyl)-1,4,7,10-tetraazacyclododec-1-yl]acetyl]amino]acetyl]amino]-4-hydrazinobenzoyl-L-glutaminyl-L-tryptophyl-L-alanyl-L-valyl-glycyl-L-histidyl-L-leucyl-L-methioninamide [Compound L202]
- GRP-R & NMB-R (binds both with similar affinity) (NMB-R; [4]): yes

Molecule: N,N-dimethylglycine-Ser-Cys(Acm)-Gly-N-4-aminoethyl-N-1-piperazineacetic acid-Ser-BBN(7-14) [Compound L28]
- GRP-R & NMB-R (binds both with similar affinity) (NMB-R; [4]): yes

Molecule: DO3A-Gly-Abz-4-Gln-Trp-Ala-Val-Gly-His-Phe-Leu-NH2 [Compound L300]
- competition / activity at GRP-R (GRP-R): high activity at the GRP-R

Molecule: CSCC[C@H](NC(=O)[C@H](CC(C)C)NC(=O)[C@H](Cc1c[nH]cn1)NC(=O)CNC(=O)[C@@H](NC(=O)[C@H](C)NC(=O)[C@H](Cc1c[nH]c2ccccc12)NC(=O)[C@H](CCC(N)=O)NC(=O)CC[C@@H](C)[C@H]1CC[C@H]2[C@@H]3[C@H](O)C[C@@H]4C[C@@H](NC(=O)CNC(=O)CN5CCN(CC(=O)O)CCN(CC(=O)O)CCN(CC(=O)O)CC5)CC[C@]4(C)[C@H]3C[C@H](O)[C@]12C)C(C)C)C(N)=O [Compound L64, N-[(3β,5β,7α,12α)-3-[[[[[4,7,10-Tris(carboxymethyl)-1,4,7,10-tetraazacyclododec-1-yl]acetyl]amino]acetyl]amino]-7,12-dihydroxy-24-oxocholan-24-yl]-L-glutaminyl-L-tryptophyl-L-alanyl-L-valyl-glycyl-L-histidyl-L-leucyl-L-methioninamide]
- Internalisation (40 minutes) (PC3 cells): 69%
- Efflux (2 h) (PC3 cells): 20%
- uptake in the mouse pancreas compared with control [1]: much higher
- uptake in the tumor compared with control [1]: much higher
- survival [2, 5]: increased survival
- survival [3]: significantly increased survival
- GRP-R & NMB-R (binds both with similar affinity) (NMB-R; [4]): yes
- receptor subtype preference (GRP-R / NMB-R) (NMB-R): dual affinity for both GRP-R and NMB-R

Molecule: N-[(3β,5β,12α)-3-[[[4,7,10-Tris(carboxymethyl)-1,4,7,10-tetraazacyclododec-1-yl]acetyl]amino]-glycyl-4-aminobenzoyl-L-leucyl-L-tryptophyl-L-alanyl-L-valinyl-glycyl-L-serinyl-L-phenylalanyl-L-methioninamide [Compound L225]
- competition / activity at GRP-R (GRP-R): reduces competition at the GRP-R

Molecule: N,N-dimethylglycine-Ser-Cys(Acm)-Gly-Asp-8-amino-3,6-dioxaoctanoic acid-BBN(7-14) [Compound L3]
- GRP-R & NMB-R (binds both with similar affinity) (NMB-R; [4]): yes

Molecule: N-[4-[[[[4,7,10-Tris(carboxymethyl)-1,4,7,10tetraazacyclododec-1-yl]acetyl]glycyl]amino]3-chlorobenzoyl]L-glutaminyl-L-tryptophyl-1-alanyl-L-valyl-glycyl-L-histidyl-L-leucyl-L-methioninamide [Compound L241]
- GRP-R & NMB-R (binds both with similar affinity) (NMB-R; [4]): yes
